Measured values as given in paper PMC11903733 (Frontiers in Pharmacology, 2025).

Tests used:
[1] = system: MV-4-11 xenograft; assay: MV-4-11 xenograft model, anti-tumor activity; assay type: in vivo, BALB/c nude mice; conditions: 10 mg/kg intraperitoneal daily, 15 days, versus vehicle group
Source text: Given the potent inhibitory effect of LTM-1 on MV-4-11 cell proliferation in vitro, a previously reported xenograft animal model was established to measure the anti-tumor growth and development effects of LTM-1 ([Zhou et al., 2022]). The animal experimental design of this study was reviewed and confirmed by the Ethics Committee of China Pharmaceutical University. The experimental procedures complied with the ARRIVE guidelines (https://arriveguidelines.org/). Female BALB/c nude mice aged 4–6 weeks were purchased from Changzhou Cave Animal Co., Ltd. (Changzhou, China). Mice were housed in a specific pathogen-free (SPF) environment, where the temperature was precisely regulated to 25°C ± 2°C, the relative humidity was kept at 50% ± 5%, and a strict 12-h light-dark cycle was maintained. A 200 μL suspension of MV-4-11 cells (1 × 10^6 cells) was injected subcutaneously into the mice. […] The mice were administered drugs via intraperitoneal injection daily, with a total treatment period of 15 days. Mouse weight and tumor volume were measured every 3 days. The tumor volume was calculated using the formula (c × c × d)/2 (where c represents the smallest diameter, and d represents the largest diameter). […] In addition, the liver and kidney index levels were measured using an automatic biochemical analyzer to evaluate the toxic effects of LTM-1 on mice.

[2] = Toxicity in xenografted mice: body weight, serum liver and kidney indices; assay type: in vivo, BALB/c nude mice
Source text: Given the potent inhibitory effect of LTM-1 on MV-4-11 cell proliferation in vitro, a previously reported xenograft animal model was established to measure the anti-tumor growth and development effects of LTM-1 ([Zhou et al., 2022]). The animal experimental design of this study was reviewed and confirmed by the Ethics Committee of China Pharmaceutical University. The experimental procedures complied with the ARRIVE guidelines (https://arriveguidelines.org/). Female BALB/c nude mice aged 4–6 weeks were purchased from Changzhou Cave Animal Co., Ltd. (Changzhou, China). Mice were housed in a specific pathogen-free (SPF) environment, where the temperature was precisely regulated to 25°C ± 2°C, the relative humidity was kept at 50% ± 5%, and a strict 12-h light-dark cycle was maintained. A 200 μL suspension of MV-4-11 cells (1 × 10^6 cells) was injected subcutaneously into the mice. […] The mice were administered drugs via intraperitoneal injection daily, with a total treatment period of 15 days. Mouse weight and tumor volume were measured every 3 days. The tumor volume was calculated using the formula (c × c × d)/2 (where c represents the smallest diameter, and d represents the largest diameter). When the animals could no longer access food and/or the average tumor diameter exceeded 15 mm, the mice were anesthetized with 2.5% isoflurane and euthanized by cervical dislocation to minimize suffering. In addition, the liver and kidney index levels were measured using an automatic biochemical analyzer to evaluate the toxic effects of LTM-1 on mice.

[3] = target: T1, LSD2 (Homo sapiens, UniProt Q8NB78); assay: Lance Ultra demethylase TR-FRET enzyme inhibition assay, LSD2; assay type: biochemical; conditions: full-length LSD2 172 nM, Bio-H3K4me2 substrate, 1 h, mean ± SD, n = 3
T1 construct: full-length LSD2; by word order LSD2 from ActiveMotif
T1 sequence (Q8NB78 1-822): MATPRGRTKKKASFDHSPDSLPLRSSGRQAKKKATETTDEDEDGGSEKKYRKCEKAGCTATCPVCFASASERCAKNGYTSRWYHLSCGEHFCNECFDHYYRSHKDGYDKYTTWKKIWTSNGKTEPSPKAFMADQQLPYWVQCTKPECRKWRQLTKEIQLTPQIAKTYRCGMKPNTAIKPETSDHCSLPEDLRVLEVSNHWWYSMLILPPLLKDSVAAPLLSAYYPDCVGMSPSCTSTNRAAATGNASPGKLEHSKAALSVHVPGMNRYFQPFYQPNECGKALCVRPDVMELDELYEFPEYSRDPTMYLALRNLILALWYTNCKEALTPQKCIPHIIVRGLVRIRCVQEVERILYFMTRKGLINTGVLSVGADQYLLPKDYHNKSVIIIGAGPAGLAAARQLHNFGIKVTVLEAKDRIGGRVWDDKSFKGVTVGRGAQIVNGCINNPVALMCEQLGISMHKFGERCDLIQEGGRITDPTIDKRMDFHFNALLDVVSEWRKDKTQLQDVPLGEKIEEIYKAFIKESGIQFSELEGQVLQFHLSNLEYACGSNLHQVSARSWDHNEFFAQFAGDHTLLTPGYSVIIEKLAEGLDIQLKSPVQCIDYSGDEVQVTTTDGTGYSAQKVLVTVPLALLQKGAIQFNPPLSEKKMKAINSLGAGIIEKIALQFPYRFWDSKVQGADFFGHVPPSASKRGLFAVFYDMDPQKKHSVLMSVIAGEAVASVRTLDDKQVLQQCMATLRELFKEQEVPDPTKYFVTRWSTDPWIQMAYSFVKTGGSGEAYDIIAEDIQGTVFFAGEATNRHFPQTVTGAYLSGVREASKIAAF
Source text: (§1) These were utilized in both in vitro and in vivo assays. Iscove’s Modified Dulbecco’s Medium (IMDM), Roswell Park Memorial Institute (RPMI)-1640 medium, fetal bovine serum (FBS) and penicillin/streptomycin were purchased from Gibco (Grand Island, New Nork, United States). Recombinant human LSD1 (172–852 aa) and full-length LSD2 were obtained from Sino Biological Inc. and ActiveMotif.
(§2) The inhibitory effects of the tested compounds on LSD1 and LSD2 enzymes were methodically assessed using the Lance Ultra LSD1 Histone H3-Lysine 4 Demethylase Assay Kit from PerkinElmer, adhering to previously published methodologies ([Li et al., 2022]). In brief, the reaction was initiated by adding 4 μL of enzyme solution, with concentrations specified at 2 nM for LSD1 or 172 nM for LSD2, 4 μL of substrate solution [2.5 μM Bio-H3K4me2 ([…])], and 2 μL of tested compound to a Tris buffer (50 mM Tris-HCl, 50 mM NaCl, 0.01% Tween 20, 1 mM DTT, 10 μM FAD, 10% glycerol, pH 9.0) at room temperature and incubated for 1 h. Following the incubation, 5 μL of a detection mixture, comprising an Eu-labeled H3K4me0 antibody and ULight Streptavidin, was added to the reaction. The fluorescence intensity was then measured employing TR-FRET mode with excitation and emission wavelengths set at 320 nm and 665 nm, respectively, utilizing the Envision (PerkinElmer) system. Each experiment was performed in triplicate.

[4] = target: T2, LSD1 (Homo sapiens, UniProt O60341); assay: Lance Ultra LSD1 demethylase TR-FRET enzyme inhibition assay; assay type: biochemical; conditions: recombinant human LSD1 (172–852 aa) 2 nM, Bio-H3K4me2 substrate, 1 h, TR-FRET; mean ± SD, n = 3
T2 construct: Recombinant human LSD1 (172–852 aa); by word order LSD1 from Sino Biological
Source text: as §1, §2

[5] = compared to the vehicle control group

O=S(=O)(c1ccc(C(O)CO)c(C(F)(F)F)c1)N1CCc2cc(C3CC3NCC3CCNCC3)ccc21 (stereo not drawn) [LTM-1]
tumor growth (tumor volume) [1]: significantly reduced | body weight of mice ([2]; 10 mg/kg intraperitoneal daily, 15 days, versus vehicle group): no significant differences | liver and kidney function indices ([2]; LTM-1 treated MV-4-11 xenografted mice): did not induce significant changes | alanine aminotransferase (ALT) level in mouse serum [2, 5]: no significant changes | aspartate aminotransferase (AST) level in mouse serum [2, 5]: no significant changes | blood urea nitrogen (BUN) level in mouse serum [2, 5]: no significant changes | creatinine (CRE) level in mouse serum [2, 5]: no significant changes | IC50 [3]: > 5000 nM | IC50 [4]: 2.11 ± 0.14 nM
